Here are results for 3 compounds from patent EP0156091A1, “Beta-oxo-alpha-carbamoyl-pyrrolepropionitriles, processes for their preparation, pharmaceutical compositions comprising these compounds and their therapeutic use” (CIBA-GEIGY AG, priority 1984, dated 1985).

The test system of assay [1] is durch Carrageenin hervorgerufenen Oedem. Kind of assay: Carrageenan paw oedema test. It is filed as in vivo, Ratte. The note with it: rat. On the procedure: Der Carrageenin-Photenödem-Test in Hinsicht auf die antiinflammatorische Wirkung wird an der Ratte wie folgt durchgeführt: • Eine Stunde nach der oralen Verabreichung der Wirksubstanz wird in die Sohle einer hinteren Pfote 0,1 ml Carrageenin (1%-ig) injiziert. In bestimmten Zeiten wird dann die Differenz der Schwellung zwischen der behandelten und der intakten gegenseitigen Pfote durch Quecksilber-Verdrängung gemessen.
Als Beispiele der Erfindung seien das ß-0xo-a-(phenylcarbamoyl)-ß-(2-pyrrolyl)-propionitril des Beispeils 1 und das ß-0xo-a-(4-chlorphenyl)-ß-(2-pyrrolyl)-propionitril des Beispiels 2 genannt, welche bei einer peroralen Dosis von 100 mg/kg, gegen die durch Carrageenin hervorgerufenen Oedem an der Ratte, 3 Stunden nach der Verabreichung, einen 46 bzw. 63%-igen Schutz gewähren. Analog ergibt das β-Oxo-α-(2,4- difluorphenylcarbamoyl)-ß-(2-pyrrolyl)-propionitril des Beispiels 3, bei einer Dosis von 25 mg/kg/p.o. einen 33%-igen Schutz.
For orientation: The carrageenan paw model is a standard test of acute inflammation.

The next assay concerns Adjuvans-Arthritis. Kind of assay: Adjuvant arthritis test. It is filed as in vivo, Ratte. The note with it: rat, 25 mg/kg/p.o. As to the method:
Der übliche Adjuvans-Arthritis-Test für die anti-arthritische Aktivität wird im wesentlichen wie in Proc. Soc. Exp. Biol. Med. 137, 506 (1971) durchgeführt.
Weiter sind die Verbindungen der Erfindung, z.B. die vorher genannten Verbindungen der Beispiele 1, 2 und 3 in dem üblichen Adjuvans- Arthritis-Test an der Ratte bei einer Dosis von 25 mg/kg/p.o. aktiv und sie gewähren einen Schutz von 47%, 58% bzw. 55Z.
Beispiel 13: Der Schutz im üblichen Adjuvans-Arthritis-Test, der im wesentlichen gemäss Proc. Soc. Exp. Biol. Med. 137, 506 (1971) durchgeführt wird, ist wie folgt: […]

The test system of assay [2] is BCG immunisierten Adjuvans-Arthritis-Ratte. Kind of assay: Skin test (delayed hypersensitivity, PPD) in BCG-immunised adjuvant arthritis rat. To be noted: 25 mg/kg/p.o. It is filed as in vivo. An excerpt: Die Erhöhung der durch die Zellen vermittelten Immunität wird in-vivo an der mit BCG-immunisierten arthritischen Ratten durch Messung der Verzögerung der Ueberempfindlichkeitsreaktion, im wesentlichen wie in Current Therapeutic Research 30, S 34 (1981) beschrieben, gemessen.
Männliche Charles River Ratten von einem Gewicht von 325-400 g werden sensibilisiert, indem man jedem Versuchstier in die rechte hintere Pfotensohle […] Mycobacterium tuberculosis (Difco), das in Freund' schem Adjuvans (Freund's incomplete adjuvant) suspendiert ist, injiziert. Die Tiere werden am 18. Tag nach der Adjuvans-Injektion mit 0,1 ml BCG-Vakzine intradermal immunisiert. Die Wirksubstanz wird peroral in einer Maisstärke-Suspension verabreicht. Die Kontrolltiere werden lediglich mit der Maisstärke behandelt. Alle Tiere werden am 29. Tag an der Haut durch intradermale Verabreichung von 10 pg PPD (purified protein derivative) getestet, um Hautreaktionen hervorzurufen. Der Durchmesser des Erythems und die Erhärtungsreaktion werden 24 Stunden nach der Antigen-Behandlung gemessen. Eine […] des Erythem-Durchmessers deutet auf die erhöhte Zellenimmunität hin.

Where [3] appears, read: 100 mg/kg peroral, 3 hours after administration.

For `N#CC(C(=O)Nc1ccccc1)C(=O)c1ccc[nH]1` (stereo not shown) [Beispiel 1, ß-Oxo-a-(phenylcarbamoyl)-ß-(2-pyrollyl)-propionitril], in assay [1] (setting [3]), the “Schutz gegen die durch Carrageenin hervorgerufenen Oedem” value came to 46%. Moreover, the “Schutz im Adjuvans-Arthritis-Test” value in the assay with Adjuvans-Arthritis is 47%. Further, the “Wirkung im Haut-Test (immunopotenzierende Wirkung)” value in assay [2] is listed as “signifikante Wirkung”.

With `N#CC(C(=O)Nc1ccc(Cl)cc1)C(=O)c1ccc[nH]1` (stereo not drawn) [Beispiel 2, β-Oxo-α-(4-chlorphenylcarbamoyl)-ß-(2-pyrrolyl)-propionitril], the “Schutz gegen die durch Carrageenin hervorgerufenen Oedem” value in assay [1] (setting [3]) worked out at 63%. In the assay with Adjuvans-Arthritis, the “Schutz im Adjuvans-Arthritis-Test” value worked out at 58%. For the same compound, the “Wirkung im Haut-Test (immunopotenzierende Wirkung)” value in assay [2] was “signifikante Wirkung”.

On to `N#CC(C(=O)Nc1ccc(F)cc1F)C(=O)c1ccc[nH]1` (stereo not shown) [Beispiel 3, ß-0xo-a-(2,4-difluorphenylcarbamoyl)-ß-(2-pyrrolyl)-propionitril], for which the “Schutz gegen die durch Carrageenin hervorgerufenen Oedem” value in assay [1] (25 mg/kg/p.o.) came to 33%.
